From paper PMC3110694 (Science (New York, N.Y.), 2010)
“Also recorded” adds a separate entry of the source.

How the values were obtained:
Balb/cJ mice = experiment: CPT-11-induced delayed diarrhea and intestinal damage in mice
E. coli β-glucuronidase = E. coli β-glucuronidase (Escherichia coli, UniProt P05804); experiment: E. coli β-glucuronidase in vitro inhibition assay; format: biochemical; settings: errors SD, N = 3
[1] = target: β-glucuronidase activity in cultured E. coli cells (Escherichia coli, UniProt P05804); experiment: β-glucuronidase activity in living E. coli cells; format: cell-based
Sequence of β-glucuronidase activity in cultured E. coli cells (P05804 whole entry): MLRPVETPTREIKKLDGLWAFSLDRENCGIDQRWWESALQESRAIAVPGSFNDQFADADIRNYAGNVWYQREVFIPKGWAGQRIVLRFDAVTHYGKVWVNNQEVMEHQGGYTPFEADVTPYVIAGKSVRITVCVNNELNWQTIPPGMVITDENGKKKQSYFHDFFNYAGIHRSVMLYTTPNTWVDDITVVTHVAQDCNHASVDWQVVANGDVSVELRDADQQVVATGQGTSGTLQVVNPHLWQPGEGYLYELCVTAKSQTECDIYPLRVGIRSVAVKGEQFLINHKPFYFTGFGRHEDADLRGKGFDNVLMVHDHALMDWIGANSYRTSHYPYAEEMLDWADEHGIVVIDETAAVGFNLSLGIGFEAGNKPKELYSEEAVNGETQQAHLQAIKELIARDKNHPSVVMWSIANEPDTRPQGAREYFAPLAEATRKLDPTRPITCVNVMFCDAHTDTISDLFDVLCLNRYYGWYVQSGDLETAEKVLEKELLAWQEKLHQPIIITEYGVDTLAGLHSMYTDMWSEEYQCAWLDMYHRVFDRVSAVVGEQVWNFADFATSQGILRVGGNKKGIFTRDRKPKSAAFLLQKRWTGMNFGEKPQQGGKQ

Sequence of E. coli β-glucuronidase (P05804 whole entry): as above

Molecule | diarrhea and bloody diarrhea, CPT-11 only (Balb/cJ mice; group 3: CPT-11 50 mg per kg i.p. once daily, no Inhibitor 1, days 8 to 10) | colonic tissue histology, CPT-11 only (Balb/cJ mice; group 3: CPT-11 only) | euthanasia, CPT-11 only (Balb/cJ mice; group 3: CPT-11 only, by day 11) | IC50 (E. coli β-glucuronidase) [µM] | Ki (E. coli β-glucuronidase) [µM] | EC50 ([1]; E. coli cell-based, errors SD, N = 3) | effect on β-glucuronidase activity in cultured E. coli cells ([1]; cultured E. coli, listed as GDL)
CCc1c2c(nc3ccc(OC(=O)N4CCC(N5CCCCC5)CC4)cc13)-c1cc3c(c(=O)n1C2)COC(=O)[C@]3(O)CC [CPT-11, irinotecan, reference compound] | all the animals; also recorded: produced bloody diarrhea starting after 8 days and peaking at 10 days | destroyed these tissues; also recorded: highly disrupted tissues | all the group 3 animals had to be euthanized | – | – | – | –
glucaro-δ-lactam [reference compound] | – | – | – | 26.4 ± 0.483 | 7.75 ± 0.475 | N.E. | did not disrupt β-glucuronidase activity; also recorded: no effect
